Experimental data from US10226464B2, “Small molecule NF-κB inhibitors” (ImmuneTarget, Inc., priority 2015, dated 2019).
pIC50: −log10 of the molar value.

Legend:
[1] = target: c-Rel protein (Homo sapiens (Human), UniProt Q04864); test: Electrophoretic Mobility Shift Assay (EMSA), Rel/NF-κB DNA binding inhibition; details: 10 nM c-Rel protein, phosphor-labeled CD28RE oligonucleotide
Method: Electrophoretic Mobility Shift Assay (EMSA)
DNA binding reaction (20 μL) was carried out in 1×DNA Binding Buffer (10 mM Tris, 40 mM NaCl, 1 mM EDTA, 4% glycerol) with 10 nM c-Rel protein and 0.5 ng phosphor-labeled CD28RE oligonucleotide for 10 minutes at room temperature in 96-well plates. Test compounds, in serial dilutions, were added into each well, and further incubated for 15 minutes before loading onto native 5% polyacrylamide gel. Electrophoresis proceeded for 2.5 hours at 160V. Radioactive signals were quantified using Phospho-Imager. IC50 of compounds of example 1 to 75 were determined by quantifying the intensity of Rel/NF-κB inhibition in EMSA using phospho-imager. An example of EMSA data of the present invention is shown for compound 6 in FIG. 2.

[2] = test system: NF-κB; test: NF-κB GFP Assay (NFκB/Jurkat/GFP transcriptional reporter cell line); format: cell-based; details: Homo sapiens; NF-κB/Jurkat/GFP reporter cells, TNF-α 5 ng/ml, 24 hours; read-out: NF-KB GFP IC50
Method: NFκB/Jurkat/GFP transcriptional reporter cell line was obtained from SBI System Biosciences. NF-κB/Jurkat/GFP™ Reporter cells (5×10^5 cells) were plated at a concentration of 1 million cells/ml into each well of a 24-well plate. TNF-α (5 ng/ml) was added. Compounds were added via serial dilutions to corresponding wells. After 24 hours, 100 μl of the cells were transferred to a well of a Costar® UV plate (96 well, No lid, w/ UV Transparent Flat Bottom, Corning, N.Y., Cat#3635) and the intensity of GFP fluorescence was measured (Excitation 485+/−20, Emission 528+/−20) in a Synergy™ HT Multi-Detection Microplate Reader (BioTech, Winooski, Vt.). The intensities of GFP measured were plotted against the […].

Chain of c-Rel protein (Q04864 whole entry): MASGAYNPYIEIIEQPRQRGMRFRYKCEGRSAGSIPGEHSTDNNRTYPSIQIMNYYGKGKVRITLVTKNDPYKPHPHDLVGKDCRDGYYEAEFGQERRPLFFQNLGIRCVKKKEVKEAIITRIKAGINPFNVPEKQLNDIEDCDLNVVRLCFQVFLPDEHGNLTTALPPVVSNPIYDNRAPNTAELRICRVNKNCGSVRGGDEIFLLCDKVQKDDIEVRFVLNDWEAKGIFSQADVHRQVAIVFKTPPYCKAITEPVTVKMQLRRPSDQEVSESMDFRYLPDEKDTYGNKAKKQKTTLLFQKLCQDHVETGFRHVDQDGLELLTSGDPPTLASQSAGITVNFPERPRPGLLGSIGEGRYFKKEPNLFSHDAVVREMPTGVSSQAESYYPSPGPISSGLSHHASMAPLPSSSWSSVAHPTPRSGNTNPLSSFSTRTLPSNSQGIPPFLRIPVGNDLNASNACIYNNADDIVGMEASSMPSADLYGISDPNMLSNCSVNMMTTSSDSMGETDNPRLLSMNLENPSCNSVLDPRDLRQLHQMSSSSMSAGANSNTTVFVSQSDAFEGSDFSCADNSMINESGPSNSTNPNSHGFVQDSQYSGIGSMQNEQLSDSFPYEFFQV

pIC50 [1] | pIC50 [2] | SMILES
> 5.70 | > 4.52 | COc1cc(Br)cc2cc3c(=O)[nH]c(=O)nc-3oc12 [Compound 4, 7-bromo-9-methoxy-2H-chromeno[2,3-d]pyrimidine-2,4(3H)-dione]
> 6.00 | > 5.30 | COCCOCCOc1cc2oc3nc(=O)[nH]c(=O)c-3cc2cc1F [Compound 65]
> 6.00 | 5.09 | COc1cc(OC)c2cc3c(=O)[nH]c(=O)nc-3oc2c1 [Compound 14, 6,8-dimethoxy-2H-chromeno[2,3-d]pyrimidine-2,4(3H)-dione]
> 6.30 | > 5.00 | CC(C)(C)COc1cc2oc3nc(=O)[nH]c(=O)c-3cc2cc1F [Compound 36]
> 6.00 | > 5.30 | COCCOCCCOc1cc2oc3nc(=O)[nH]c(=O)c-3cc2cc1F [Compound 75, 7-fluoro-8-(3-(2-methoxyethoxy)propoxy)-2H-chromeno[2,3-d]pyrimidine-2,4(3H)-dione]
> 6.30 | > 5.30 | Cc1cc2oc3nc(=O)[nH]c(=O)c-3cc2cc1F [Compound 27, 7-fluoro-8-methyl-2H-chromeno[2,3-d]pyrimidine-2,4(3H)-dione]
> 6.00 | > 5.00 | CCOc1ccc2cc3c(=O)[nH]c(=O)nc-3oc2c1Cl [Compound 22, 9-chloro-8-ethoxy-2H-chromeno[2,3-d]pyrimidine-2,4(3H)-dione]
> 6.00 | > 4.52 | COc1ccc2oc3nc(=O)[nH]c(=O)c-3cc2c1 [Compound 10, 7-methoxy-2H-chromeno[2,3-d]pyrimidine-2,4(3H)-dione]

The remaining lines, values behind:

SMILES | pIC50 [1] | pIC50 [2]
O=c1[nH]c(=S)nc2oc3cc(O)ccc3cc1-2 [Compound 16, 8-hydroxy-2-thioxo-2H-chromeno[2,3-d]pyrimidin-4(3H)-one] | > 6.30 | > 4.52
CCCCCOc1ccc2cc3c(=O)[nH]c(=O)nc-3oc2c1Cl [Compound 39] | > 6.30 | > 5.52
COCCOCCCOc1ccc2cc3c(=O)[nH]c(=O)nc-3oc2c1Cl [Compound 72] | > 6.00 | > 5.30
COCCOCCOc1ccc2cc3c(=O)[nH]c(=O)nc-3oc2c1F [Compound 63] | > 6.00 | > 5.30
O=C(O)CCCCCOc1ccc2cc3c(=O)[nH]c(=O)nc-3oc2c1Cl [Compound 53, 6-((9-chloro-2,4-dioxo-3,4-dihydro-2H-chromeno[2,3-d]pyrimidin-8-yl)oxy)hexanoic acid] | > 5.30 | > 4.70
CCOc1cccc2cc3c(=O)[nH]c(=O)nc-3oc12 [Compound 2, 9-ethoxy-2H-chromeno[2,3-d]pyrimidine-2,4(3H)-dione] | > 5.70 | > 4.52
COCCCCOc1ccc2cc3c(=O)[nH]c(=O)nc-3oc2c1F [Compound 68] | > 6.00 | > 5.30
COCCOCCCOc1ccc2cc3c(=O)[nH]c(=O)nc-3oc2c1 [Compound 71] | > 6.00 | > 5.30
COC(=O)CCCCOc1ccc2cc3c(=O)[nH]c(=O)nc-3oc2c1Cl [Compound 57] | > 5.30 | > 4.70
CC(C)CCOc1ccc2cc3c(=O)[nH]c(=O)nc-3oc2c1Cl [Compound 40] | > 6.30 | 5.30
CC(C)COc1ccc2cc3c(=O)[nH]c(=O)nc-3oc2c1 [Compound 23, 8-isobutoxy-2H-chromeno[2,3-d]pyrimidine-2,4(3H)-dione] | > 6.00 | > 5.30
CC(C)CCCOc1ccc2cc3c(=O)[nH]c(=O)nc-3oc2c1F [Compound 47] | > 6.00 | > 5.30
O=C(O)COc1ccc2cc3c(=O)[nH]c(=O)nc-3oc2c1Cl [Compound 56] | > 5.30 | > 4.70
